Assays:
Format in all cases: in vivo
Settings in all cases: treatment dosage 320 g/ha
barnyard grass [1] = experiment: Test Example 2: weedkilling efficacy, growth period weed treatment in the submerged state; A: barnyard grass
Method in brief: (§1)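 First, alluvial soil in pots is flooded to 4 cm and mixed seed is sown. Next, plants grow in a greenhouse at 25 to 30° C until the 1-2 leaf stage. Then diluted emulsion is applied onto the water surface at the given g/ha rate, and injury is assessed after 3 weeks.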

green foxtail [2] = experiment: Test Example 4: weedkilling efficacy by foliar treatment; E: green foxtail
Method in brief: (§2)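 Seeds are spot-sown into sterilized diluvial soil and covered with about 1.5 cm of soil. After 14 days' greenhouse growth at 25 to 30° C, plants are sprayed on stems and leaves with diluted emulsion at the stated g/ha rate, then scored at 3 weeks.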

Italian ryegrass [3] = experiment: Test Example 3: weedkilling efficacy through soil treatment; I: Italian ryegrass
Method in brief: (§3)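 Crop and weed responses were judged three weeks after a uniform surface spray of the water-diluted emulsion at the given g/ha rate. Seeds sat beneath about 1.5 cm of sterilized diluvial soil, and boxes stood in a greenhouse at 25 to 30° C.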

common wind-grass [4] = experiment: Test Example 4: weedkilling efficacy by foliar treatment; J: common wind-grass
Method in brief: as §2

redroot pigweed [5] = experiment: Test Example 3: weedkilling efficacy through soil treatment; L: redroot pigweed
Method in brief: as §3

Indian mallow [6] = experiment: Test Example 4: weedkilling efficacy by foliar treatment; K: Indian mallow
Method in brief: as §2

green foxtail [7] = experiment: Test Example 3: weedkilling efficacy through soil treatment; E: green foxtail
Method in brief: as §3

soybean [8] = experiment: Test Example 3: soil treatment, effect on crop; d: soybean
Method in brief: as §3

soybean [9] = experiment: Test Example 4: foliar treatment, effect on crop; d: soybean
Method in brief: as §2

bulrush [10] = experiment: Test Example 1: weedkilling efficacy, preemergent weed treatment in the submerged state; B: bulrush
Method in brief: (§4)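 Emulsion diluted with water to the specified per-hectare dosage is applied onto flood water (4 cm) over alluvial soil on the sowing day, with barnyard grass, bulrush and pondweed seeded and rice (2.5-leaf) transplanted; plants grow at 25–30 °C and are rated at 3 weeks.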

birds-eye speedwell = experiment: Test Example 4: weedkilling efficacy by foliar treatment; p: birds-eye speedwell
Method in brief: as §2

Italian ryegrass [11] = experiment: Test Example 4: weedkilling efficacy by foliar treatment; I: Italian ryegrass
Method in brief: as §2

barnyard grass [12] = experiment: Test Example 1: weedkilling efficacy, preemergent weed treatment in the submerged state; A: barnyard grass
Method in brief: as §4

corn [13] = experiment: Test Example 3: soil treatment, effect on crop; c: corn
Method in brief: as §3

redroot pigweed [14] = experiment: Test Example 4: weedkilling efficacy by foliar treatment; L: redroot pigweed
Method in brief: as §2

beet [15] = experiment: Test Example 3: soil treatment, effect on crop; f: beet
Method in brief: as §3

wheat [16] = experiment: Test Example 4: foliar treatment, effect on crop; e: wheat
Method in brief: as §2

directly sown rice [17] = experiment: Test Example 4: foliar treatment, effect on crop; b: directly sown rice
Method in brief: as §2

wild oat [18] = experiment: Test Example 3: weedkilling efficacy through soil treatment; G: wild oat
Method in brief: as §3

corn [19] = experiment: Test Example 4: foliar treatment, effect on crop; c: corn
Method in brief: as §2

rapeseed [20] = experiment: Test Example 4: foliar treatment, effect on crop; g: rapeseed
Method in brief: as §2

fig-leafed goosefoot [21] = experiment: Test Example 4: weedkilling efficacy by foliar treatment; M: fig-leafed goosefoot
Method in brief: as §2

black-grass [22] = experiment: Test Example 4: weedkilling efficacy by foliar treatment; H: black-grass
Method in brief: as §2

beet [23] = experiment: Test Example 4: foliar treatment, effect on crop; f: beet
Method in brief: as §2

oval-leafed pondweed [24] = experiment: Test Example 1: weedkilling efficacy, preemergent weed treatment in the submerged state; C: oval-leafed pondweed
Method in brief: as §4

black-grass [25] = experiment: Test Example 3: weedkilling efficacy through soil treatment; H: black-grass
Method in brief: as §3

wheat [26] = experiment: Test Example 3: soil treatment, effect on crop; e: wheat
Method in brief: as §3

Indian mallow [27] = experiment: Test Example 3: weedkilling efficacy through soil treatment; K: Indian mallow
Method in brief: as §3

catchweed [28] = experiment: Test Example 4: weedkilling efficacy by foliar treatment; O: catchweed
Method in brief: as §2

common wind-grass [29] = experiment: Test Example 3: weedkilling efficacy through soil treatment; J: common wind-grass
Method in brief: as §3

rapeseed [30] = experiment: Test Example 3: soil treatment, effect on crop; g: rapeseed
Method in brief: as §3

chickweed [31] = experiment: Test Example 3: weedkilling efficacy through soil treatment; N: chickweed
Method in brief: as §3

directly sown rice [32] = experiment: Test Example 3: soil treatment, effect on crop; b: directly sown rice
Method in brief: as §3

transplanted rice = experiment: Test Example 1: preemergent weed treatment in the submerged state, effect on crop; a: transplanted rice
Method in brief: as §4

crabgrass [33] = experiment: Test Example 4: weedkilling efficacy by foliar treatment; D: crabgrass
Method in brief: as §2

fig-leafed goosefoot [34] = experiment: Test Example 3: weedkilling efficacy through soil treatment; M: fig-leafed goosefoot
Method in brief: as §3

crabgrass [35] = experiment: Test Example 3: weedkilling efficacy through soil treatment; D: crabgrass
Method in brief: as §3

oval-leafed pondweed [36] = experiment: Test Example 2: weedkilling efficacy, growth period weed treatment in the submerged state; C: oval-leafed pondweed
Method in brief: as §1

catchweed [37] = experiment: Test Example 3: weedkilling efficacy through soil treatment; O: catchweed
Method in brief: as §3

chickweed [38] = experiment: Test Example 4: weedkilling efficacy by foliar treatment; N: chickweed
Method in brief: as §2

bulrush [39] = experiment: Test Example 2: weedkilling efficacy, growth period weed treatment in the submerged state; B: bulrush
Method in brief: as §1

wild oat [40] = experiment: Test Example 4: weedkilling efficacy by foliar treatment; G: wild oat
Method in brief: as §2

barnyard grass [41] = experiment: Test Example 3: weedkilling efficacy through soil treatment; F: barnyard grass
Method in brief: as §3

barnyard grass [42] = experiment: Test Example 4: weedkilling efficacy by foliar treatment; F: barnyard grass
Method in brief: as §2

## CC1=C(c2ccccc2)C(=O)N(C(C)(C)C(=O)Nc2cc(C(F)(F)F)cc(C)n2)CO1 [B-2-51]
Barnyard grass [1]
  A (barnyard grass) weedkilling efficacy grade: 5 (weed kill ratio 90% or more, (practically complete withering))
Green foxtail [2]
  E (green foxtail) weedkilling efficacy grade: 5 (weed kill ratio 90% or more, (practically complete withering))
Italian ryegrass [3]
  I (Italian ryegrass) weedkilling efficacy grade: 5 (weed kill ratio 90% or more, (practically complete withering))
Common wind-grass [4]
  J (common wind-grass) weedkilling efficacy grade: 5 (weed kill ratio 90% or more, (practically complete withering))
Redroot pigweed [5]
  L (redroot pigweed) weedkilling efficacy grade: 4 (weed kill ratio 70% or more, less than 90%)
Indian mallow [6]
  K (Indian mallow) weedkilling efficacy grade: 4 (weed kill ratio 70% or more, less than 90%)
Green foxtail [7]
  E (green foxtail) weedkilling efficacy grade: 5 (weed kill ratio 90% or more, (practically complete withering))
Soybean [8]
  d (soybean) effect on crop grade: 0 (weed kill ratio 5% or less (practically no effect))
Soybean [9]
  d (soybean) effect on crop grade: 3 (weed kill ratio 40% or more, less than 70%)
Bulrush [10]
  B (bulrush) weedkilling efficacy grade: 5 (weed kill ratio 90% or more, (practically complete withering))
birds-eye speedwell
  P (birds-eye speedwell) weedkilling efficacy grade: 4 (weed kill ratio 70% or more, less than 90%)
Italian ryegrass [11]
  I (Italian ryegrass) weedkilling efficacy grade: 5 (weed kill ratio 90% or more, (practically complete withering))
Barnyard grass [12]
  A (barnyard grass) weedkilling efficacy grade: 5 (weed kill ratio 90% or more, (practically complete withering))
Corn [13]
  c (corn) effect on crop grade: 1 (weed kill ratio 5% or more, less than 20%)
Redroot pigweed [14]
  L (redroot pigweed) weedkilling efficacy grade: 4 (weed kill ratio 70% or more, less than 90%)
Beet [15]
  f (beet) effect on crop grade: 4 (weed kill ratio 70% or more, less than 90%)
Wheat [16]
  e (wheat) effect on crop grade: 1 (weed kill ratio 5% or more, less than 20%)
Directly sown rice [17]
  b (directly sown rice) effect on crop grade: 4 (weed kill ratio 70% or more, less than 90%)
Wild oat [18]
  G (wild oat) weedkilling efficacy grade: 5 (weed kill ratio 90% or more, (practically complete withering))
Corn [19]
  c (corn) effect on crop grade: 0 (weed kill ratio 5% or less (practically no effect))
Rapeseed [20]
  g (rapeseed) effect on crop grade: 3 (weed kill ratio 40% or more, less than 70%)
fig-leafed goosefoot [21]
  M (fig-leafed goosefoot) weedkilling efficacy grade: 4 (weed kill ratio 70% or more, less than 90%)
black-grass [22]
  H (black-grass) weedkilling efficacy grade: 5 (weed kill ratio 90% or more, (practically complete withering))
Beet [23]
  f (beet) effect on crop grade: 4 (weed kill ratio 70% or more, less than 90%)
oval-leafed pondweed [24]
  C (oval-leafed pondweed) weedkilling efficacy grade: 5 (weed kill ratio 90% or more, (practically complete withering))
black-grass [25]
  H (black-grass) weedkilling efficacy grade: 5 (weed kill ratio 90% or more, (practically complete withering))
Wheat [26]
  e (wheat) effect on crop grade: 0 (weed kill ratio 5% or less (practically no effect))
Indian mallow [27]
  K (Indian mallow) weedkilling efficacy grade: 2 (weed kill ratio 20% or more, less than 40%)
Catchweed [28]
  O (catchweed) weedkilling efficacy grade: 4 (weed kill ratio 70% or more, less than 90%)
Common wind-grass [29]
  J (common wind-grass) weedkilling efficacy grade: 5 (weed kill ratio 90% or more, (practically complete withering))
Rapeseed [30]
  g (rapeseed) effect on crop grade: 2 (weed kill ratio 20% or more, less than 40%)
Chickweed [31]
  N (chickweed) weedkilling efficacy grade: 4 (weed kill ratio 70% or more, less than 90%)
Directly sown rice [32]
  b (directly sown rice) effect on crop grade: 3 (weed kill ratio 40% or more, less than 70%)
Transplanted rice
  a (transplanted rice) effect on crop grade: 0 (weed kill ratio 5% or less (practically no effect))
Crabgrass [33]
  D (crabgrass) weedkilling efficacy grade: 5 (weed kill ratio 90% or more, (practically complete withering))
fig-leafed goosefoot [34]
  M (fig-leafed goosefoot) weedkilling efficacy grade: 4 (weed kill ratio 70% or more, less than 90%)
Crabgrass [35]
  D (crabgrass) weedkilling efficacy grade: 5 (weed kill ratio 90% or more, (practically complete withering))
oval-leafed pondweed [36]
  C (oval-leafed pondweed) weedkilling efficacy grade: 5 (weed kill ratio 90% or more, (practically complete withering))
Catchweed [37]
  O (catchweed) weedkilling efficacy grade: 3 (weed kill ratio 40% or more, less than 70%)
Chickweed [38]
  N (chickweed) weedkilling efficacy grade: 4 (weed kill ratio 70% or more, less than 90%)
Bulrush [39]
  B (bulrush) weedkilling efficacy grade: 5 (weed kill ratio 90% or more, (practically complete withering))
Wild oat [40]
  G (wild oat) weedkilling efficacy grade: 5 (weed kill ratio 90% or more, (practically complete withering))
Barnyard grass [41]
  F (barnyard grass) weedkilling efficacy grade: 5 (weed kill ratio 90% or more, (practically complete withering))
Barnyard grass [42]
  F (barnyard grass) weedkilling efficacy grade: 5 (weed kill ratio 90% or more, (practically complete withering))

— US9738634B2, “Heterocyclic amide compound and herbicide” (SYNGENTA PARTICIPATIONS AG, priority 2013, dated 2017)
